Like-named read-outs stand apart in the source and are kept apart here.
Tests used:
B6^Nlrp1b+ BMDMs [1] = test: Cell death kinetics, Sytox Green on Incucyte; assay type: cell-based, mouse; settings: for time to reach 30% half-maximal level of pyroptosis: VBP: all tested concentrations (10, 25, 40 μM), 1G244: 10 μM
B6 BMDMs = test: Cell death kinetics, Sytox Green on Incucyte; assay type: cell-based
Human recombinant FAP = molecular target: T1, Human recombinant FAP (Homo sapiens, UniProt Q12884)
T1 sequence (Q12884 26-760 limits assumed): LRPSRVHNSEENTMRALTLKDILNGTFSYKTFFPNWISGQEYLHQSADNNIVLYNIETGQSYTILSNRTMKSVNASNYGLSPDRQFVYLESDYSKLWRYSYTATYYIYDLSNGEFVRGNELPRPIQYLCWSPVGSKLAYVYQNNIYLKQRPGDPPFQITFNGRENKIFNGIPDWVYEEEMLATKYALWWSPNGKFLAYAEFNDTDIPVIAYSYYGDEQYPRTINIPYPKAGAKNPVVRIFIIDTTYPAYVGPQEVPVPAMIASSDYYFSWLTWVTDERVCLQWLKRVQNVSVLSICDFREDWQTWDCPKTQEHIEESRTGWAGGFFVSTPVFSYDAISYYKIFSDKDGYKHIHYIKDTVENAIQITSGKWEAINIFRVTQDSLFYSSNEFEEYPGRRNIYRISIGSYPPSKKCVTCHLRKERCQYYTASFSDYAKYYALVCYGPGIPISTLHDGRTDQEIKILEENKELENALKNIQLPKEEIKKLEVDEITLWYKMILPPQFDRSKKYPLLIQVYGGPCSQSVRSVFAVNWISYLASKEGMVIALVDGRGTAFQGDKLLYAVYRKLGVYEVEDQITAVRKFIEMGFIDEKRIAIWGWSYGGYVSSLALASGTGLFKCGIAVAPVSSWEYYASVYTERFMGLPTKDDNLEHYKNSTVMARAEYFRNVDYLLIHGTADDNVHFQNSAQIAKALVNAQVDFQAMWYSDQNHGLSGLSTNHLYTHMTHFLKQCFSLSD
Description: FAP and PREP were assayed in buffer containing 0.1 M Tris–HCl (pH 8), 300 mM NaF, 1 mM EDTA, 50 mM salicylic acid, and 5 mM DTT.

B6^Nlrp1b+ BMDMs [2] = test: Caspase-1 cleavage by immunoblot; assay type: cell-based, mouse; settings: for caspase-1 maturation to p20 (in words): LPS-primed 3 h, 10 or 40 μM, 4, 8 and 24 h; for caspase-1 maturation (in words): LPS-primed, 4 and 8 h
[3] = tested on: LPS-primed B6^Nlrp1b+ BMDMs; test: IL-1β and IL-18 secretion, Luminex multiplex assay; assay type: cell-based, mouse
human DPP9 [4] = molecular target: T2, human DPP9 (Homo sapiens, UniProt Q86TI2); settings: for Inhibitor in lysate / Inhibitor in medium: mouse, 15 min, 10 µM
human DPP9 [5] = molecular target: T2, human DPP9; test: biochemical
Human DPP2 [6] = molecular target: T3, Human DPP2 (Homo sapiens, UniProt Q9UHL4)
Description: (§1) Lys-Ala-paranitroanilide (Lys-Ala-pNA) was used as substrate at a final concentration of 1 mM.

Human DPP2 [7] = molecular target: T3, Human DPP2; test: biochemical
Description: as §1

B6^Nlrp1b+ASC^−/− BMDMs [8] = test: Cell death kinetics, Sytox Green on Incucyte; assay type: cell-based, mouse; settings: 10 μM
[9] = tested on: B6^Nlrp1b+C1^−/−C11^−/−ASC^−/− macrophages; test: Cell death morphology, confocal bright-field imaging; assay type: cell-based, mouse; settings: 10 μM; 4 h
B6^Nlrp1b+ BMDMs [10] = test: ASC speck formation, confocal imaging; assay type: cell-based, mouse; settings: 10 μM; 4 or 8 h
Description: Cells were stained with anti-ASC (1:200) antibody, followed by secondary anti-rabbit DyLight 594 (1:1,000). Then, slides were mounted on ProLong Gold Antifade reagent with DAPI for analysis. For quantification of ASC specks, analyses were performed on a spinning-disk system (Zeiss), using an observer Z.1 microscope equipped with a Yokogawa disk CSU-X1. Fluorescent images were acquired with the use of a Plan-Apochromat 40×/1.4 oil DIC III objective and a Rolera Em-C2 Camera. Tile scanning was performed combining 4 × 5 images for the final mosaic (total area 7.42 mm × 5.91 mm). The maximum intensity projections of the final mosaic were analysed on Volocity 6.3.1 (PerkinElmer) software for the number of cells containing ASC specks. Seven mosaics were quantified per experimental condition from each biological repeat and the data from all repeats were combined. One-way ANOVA with Tukey’s multiple comparisons analysis was performed in GraphPad Prism 6.0 software.

B6^Nlrp1b+ASC^−/− BMDMs [11] = test: Caspase-1 cleavage by immunoblot; assay type: cell-based, mouse; settings: 10 μM; 8 h
[12] = tested on: B6^Nlrp1b+GSDMD^−/− macrophages; test: Apoptosis induction, confocal bright-field imaging; assay type: cell-based, mouse; settings: 10 μM; 4 h
[13] = tested on: B6^Nlrp1b+C1^−/−C11^−/− macrophages; test: Caspase-8 cleavage by immunoblot; assay type: cell-based, mouse; settings: 10 μM; 4 h
J774.A1 cells = test: Cell death kinetics, Sytox Green on Incucyte; settings: 10 μM and 25 μM
[14] = calibration curve in cell lysate
[15] = cell lysate of BMDMs that received 10 µM for 15 min
[16] = medium of BMDMs that received 10 µM for 15 min
[17] = Ic50, calibration curve in cell lysate
[18] = Ic50, calibration curve in medium

T2 sequence (Q86TI2 whole entry): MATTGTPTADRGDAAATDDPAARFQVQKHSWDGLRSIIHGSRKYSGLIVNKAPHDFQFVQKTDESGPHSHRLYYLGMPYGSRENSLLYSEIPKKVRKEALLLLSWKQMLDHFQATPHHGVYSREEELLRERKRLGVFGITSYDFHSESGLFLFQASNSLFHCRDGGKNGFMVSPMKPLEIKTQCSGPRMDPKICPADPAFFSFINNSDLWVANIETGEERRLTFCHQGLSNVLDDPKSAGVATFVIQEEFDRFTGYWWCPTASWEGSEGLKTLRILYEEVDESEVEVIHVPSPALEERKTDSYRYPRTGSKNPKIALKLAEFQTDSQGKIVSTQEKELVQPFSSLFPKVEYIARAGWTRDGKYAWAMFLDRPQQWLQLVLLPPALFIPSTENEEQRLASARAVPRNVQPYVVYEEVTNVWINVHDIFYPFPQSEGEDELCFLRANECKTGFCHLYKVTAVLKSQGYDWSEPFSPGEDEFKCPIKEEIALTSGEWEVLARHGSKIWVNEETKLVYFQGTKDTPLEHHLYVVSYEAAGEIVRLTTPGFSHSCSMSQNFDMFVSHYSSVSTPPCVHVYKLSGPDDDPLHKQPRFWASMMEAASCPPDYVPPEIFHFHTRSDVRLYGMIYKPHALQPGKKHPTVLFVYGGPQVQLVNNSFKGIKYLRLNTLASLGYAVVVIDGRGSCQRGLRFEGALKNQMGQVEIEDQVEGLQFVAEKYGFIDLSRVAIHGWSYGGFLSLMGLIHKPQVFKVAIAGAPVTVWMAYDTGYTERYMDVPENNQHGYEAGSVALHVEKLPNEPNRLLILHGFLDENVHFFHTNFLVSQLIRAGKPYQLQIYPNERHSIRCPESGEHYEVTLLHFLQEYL

N#C[C@@H]1CC(F)(F)CN1C(=O)CNC(=O)c1ccnc2ccccc12 [UAMC1110]
cell death induction (in words) (B6^Nlrp1b+ BMDMs [1]; 10, 25 and 40 μM): none of the listed inhibitors triggered a cell death response
cell death induction (in words) (B6 BMDMs; 10, 25 and 40 μM): none of the listed inhibitors triggered a cell death response
Slope factor (Human recombinant FAP; [14]): 1.21 ± 0.07
Slope factor (Human recombinant FAP; calibration curve in medium): 1.2 ± 0.1
Inhibition (Human recombinant FAP; [15]): 100%
Inhibition (Human recombinant FAP; [16]): 100%
Inhibitor in lysate (Human recombinant FAP; mouse, 15 min, 10 µM): 0.4 µM
Inhibitor in medium (Human recombinant FAP; mouse, 15 min, 10 µM): 8.8 µM

N#C[C@@H]1CCCN1C(=O)[C@@H]1CCCN1C(=O)CCCc1ccccc1 [KYP-2047]
cell death induction (in words) (B6^Nlrp1b+ BMDMs [1]; 10, 25 and 40 μM): none of the listed inhibitors triggered a cell death response
cell death induction (in words) (B6 BMDMs; 10, 25 and 40 μM): none of the listed inhibitors triggered a cell death response

CC(C)[C@@H]1[NH2+][B-](O)(O)[C@@H]2CCCN2C1=O [cVBP]
cell death induction (in words) (B6^Nlrp1b+ BMDMs [1]; 10, 25 and 40 μM): induced significant pyroptosis
cell death induction (in words) (B6 BMDMs; 10, 25 and 40 μM): failed to induce cell death
caspase-1 maturation to p20 (in words) (B6^Nlrp1b+ BMDMs [2]): caspase-1 p20 cleavage was detected only in lysates of macrophages that had been treated with the highest concentration (40 μM)
secretion of IL-1β and IL-18 (in words) ([3]; 10 μM): less efficient in eliciting extracellular secretion of IL-1β and IL-18
secretion of IL-1β and IL-18 (in words) ([3]; 40 μM): triggered substantial extracellular release of IL-1β and IL-18
Slope factor (human DPP9 [4]; [14]): 1.4 ± 0.2
Slope factor (human DPP9 [4]; calibration curve in medium): 1.33 ± 0.08
Inhibition (human DPP9 [4]; [15]): 2.7%
Inhibition (human DPP9 [4]; [16]): 71%
Inhibitor in lysate (human DPP9 [4]): 0.3 µM
Inhibitor in medium (human DPP9 [4]): 3.2 µM
attenuation in ability to inhibit DPP9 activity in vitro (human DPP9 [4]; relative to VBP): more than 100 fold
IC50 (human DPP9 [5]; [17]): 1.6 ± 0.1 µM
IC50 (human DPP9 [5]; [18]): 1.7 ± 0.08 µM

N[C@@H](CC(=O)N1CCn2c(nnc2C(F)(F)F)C1)Cc1cc(F)c(F)cc1F [sitagliptin]
cell death induction (in words) (B6^Nlrp1b+ BMDMs [1]; 10, 25 and 40 μM): none of the listed inhibitors triggered a cell death response
cell death induction (in words) (B6 BMDMs; 10, 25 and 40 μM): none of the listed inhibitors triggered a cell death response

N[C@@H](CCNCc1ccc(Cl)cc1)C(=O)N1CCCCC1 [UAMC39]
cell death induction (in words) (B6^Nlrp1b+ BMDMs [1]; 10, 25 and 40 μM): none of the listed inhibitors triggered a cell death response
Slope factor (Human DPP2 [6]; [14]): 1.3 ± 0.3
Slope factor (Human DPP2 [6]; calibration curve in medium): 1.4 ± 0.1
Inhibition (Human DPP2 [6]; [15]): 100%
Inhibition (Human DPP2 [6]; [16]): 100%
Inhibitor in lysate (Human DPP2 [6]; mouse, 15 min, 10 µM): 120/66
Inhibitor in medium (Human DPP2 [6]; mouse, 15 min, 10 µM): 52/45
cell death induction (in words) (B6 BMDMs; 10, 25 and 40 μM): none of the listed inhibitors triggered a cell death response
IC50 (Human DPP2 [7]; [17]): 0.006 ± 0.001 µM
IC50 (Human DPP2 [7]; [18]): 0.0098 ± 0.0006 µM

N[C@@H](CC(=O)N1CCN(C(c2ccc(F)cc2)c2ccc(F)cc2)CC1)C(=O)N1Cc2ccccc2C1 [1G244]
cell death induction (in words) (B6^Nlrp1b+ BMDMs [1]; 0.1 μM): failed to trigger a cytotoxic response
cell death induction (in words) (B6^Nlrp1b+ BMDMs [1]; 1 μM): induced a reduced level of pyroptosis
plateau of pyroptosis (B6^Nlrp1b+ BMDMs [1]; 10 μM, by 6 h posttreatment): about 60%
time to reach 30% half-maximal level of pyroptosis (B6^Nlrp1b+ BMDMs [1]): ≤ 2 h
reduction of maximal level of pyroptosis compared with ASC-sufficient B6^Nlrp1b+ macrophages (B6^Nlrp1b+ASC^−/− BMDMs [8]): about 50%
time at which pyroptosis commences (B6 BMDMs; 10 μM or 25 μM): around 10 h
pyroptosis, share of the cell population (B6 BMDMs; by 24 h, 10 μM or 25 μM): ~20%
pyroptosis level (B6 BMDMs; by 24 h, 40 μM): 40%
caspase-1 maturation to p20 (in words) (B6^Nlrp1b+ BMDMs [2]): efficiently promoted caspase-1 auto-maturation
caspase-1 maturation (in words) (B6^Nlrp1b+ BMDMs [2]; 1 μM): triggered weak caspase-1 processing
cell death (in words) [9]: remained alive and were fully rescued from apoptosis and pyroptosis induction
ASC speck formation (in words) (B6^Nlrp1b+ BMDMs [10]): marked ASC speck formation
secretion of IL-1β and IL-18 (in words) ([3]; 10 or 40 μM, 4, 8 or 24 h): potently triggered secretion of IL-1β and IL-18
caspase-1 maturation (in words) (B6^Nlrp1b+ASC^−/− BMDMs [11]): blunted
apoptosis induction (in words) [12]: potently induce apoptosis
Slope factor (human DPP9 [4]; [14]): 1.30 ± 0.09
Slope factor (human DPP9 [4]; calibration curve in medium): 1.39 ± 0.09
Inhibition (human DPP9 [4]; [15]): 98%
Inhibition (human DPP9 [4]; [16]): 100%
Inhibitor in lysate (human DPP9 [4]): 0.06 µM
Inhibitor in medium (human DPP9 [4]): 1.5 µM
IC50 (human DPP9 [5]; [17]): 0.01 ± 0.0006 µM
IC50 (human DPP9 [5]; [18]): 0.0153 ± 0.0008 µM

CC(C)[C@H](N)C(=O)N1CCC[C@H]1B(O)O [VBP, Val-boroPro]
cell death induction (in words) (B6^Nlrp1b+ BMDMs [1]; 0.1 μM): failed to trigger a cytotoxic response
cell death induction (in words) (B6^Nlrp1b+ BMDMs [1]; 1 μM): sufficient to induce robust pyroptosis
time to reach 30% half-maximal level of pyroptosis (B6^Nlrp1b+ BMDMs [1]): ≤ 3 h
time to reach half-maximal induction of pyroptosis (35% cell death in the total cell population) (B6^Nlrp1b+ BMDMs [1]; rebuttal letter, on Figure 1a): about 3 hours
reduction of maximal level of pyroptosis compared with ASC-sufficient B6^Nlrp1b+ macrophages (B6^Nlrp1b+ASC^−/− BMDMs [8]): about 50%
time required to reach 30% cytotoxicity (B6 BMDMs; 10, 25 and 40 μM): about 8 h
level of pyroptosis (SG-positive cells relative to Triton X100) (B6 BMDMs; by 6 h, 10, 25 and 40 μM): ~20%
plateau cytotoxicity (B6 BMDMs; by 24 h, 10, 25 and 40 μM): approximately 50%
time to reach the same level of cell death induction (35%) (B6 BMDMs; rebuttal letter, on Figure 1a): approximately 9 h
caspase-8 cleavage (in words) [13]: marked ASC-dependent caspase-8 cleavage
cytotoxic response (in words) (J774.A1 cells): elicited a swift and robust cytotoxic response
caspase-1 maturation to p20 (in words) (B6^Nlrp1b+ BMDMs [2]): triggered marked caspase-1 cleavage
caspase-1 maturation (in words) (B6^Nlrp1b+ BMDMs [2]; 0.1 μM): failed to induce caspase-1 auto-cleavage
caspase-1 maturation (in words) (B6^Nlrp1b+ BMDMs [2]; 1 μM): sufficient to trigger caspase-1 maturation
cell death (in words) [9]: remained alive and were fully rescued from apoptosis and pyroptosis induction
ASC speck formation (in words) (B6^Nlrp1b+ BMDMs [10]): marked ASC speck formation
secretion of IL-1β and IL-18 (in words) ([3]; 10 or 40 μM, 4, 8 or 24 h): potently released IL-1β
caspase-1 maturation (in words) (B6^Nlrp1b+ASC^−/− BMDMs [11]): blunted
apoptosis induction (in words) [12]: potently induce apoptosis

CC(=O)N[C@H](C(=O)N1CCC[C@H]1B(O)O)C(C)C [aVBP]
cell death induction (in words) (B6^Nlrp1b+ BMDMs [1]; 10, 25 and 40 μM): failed to induce cytotoxicity
cell death induction (in words) (B6 BMDMs; 10, 25 and 40 μM): failed to induce cytotoxicity
caspase-1 maturation to p20 (in words) (B6^Nlrp1b+ BMDMs [2]): failed to elicit caspase-1 maturation
secretion of IL-1β and IL-18 (in words) ([3]; 10 or 40 μM, 4, 8 or 24 h): failed to induce cytokine secretion
